Reference: the supplement of paper PMC10307832

What was measured:
Assay in all cases: relative viability (nuclei count vs DMSO), 5 days (fraction); higher = more cells survive
MLN4924 + Crizotinib = compound: NS(=O)(=O)OC[C@@H]1C[C@@H](n2ccc3c(N[C@H]4CCc5ccccc54)ncnc32)C[C@@H]1O [MLN4924] + C[C@@H](Oc1cc(-c2cnn(C3CCNCC3)c2)cnc1N)c1c(Cl)ccc(F)c1Cl [Crizotinib] (partner 1 µM)
Procedure, shortened: (§1)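 The day after seeding in 1536-well plates, lung cancer cell lines were treated by pin tool with a single drug, or with a fixed anchor-drug dose together with five library-drug doses (not always all listed) in √10 steps. After 5 days, a combined fix-and-stain solution (final 0.05% Triton X-100, 1% formaldehyde, 1 ug/ml Hoechst) was added. Nuclei counted on 4× images gave relative viability as treated counts over vehicle counts, reported as the median of duplicate plates.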

MLN4924 + Foretinib = compound: NS(=O)(=O)OC[C@@H]1C[C@@H](n2ccc3c(N[C@H]4CCc5ccccc54)ncnc32)C[C@@H]1O [MLN4924] + COc1cc2c(Oc3ccc(NC(=O)C4(C(=O)Nc5ccc(F)cc5)CC4)cc3F)ccnc2cc1OCCCN1CCOCC1 [Foretinib] (partner 0.25 µM)
Procedure, shortened: as §1

GSK126 + Bortezomib = compound: CC[C@H](C)N1C=C(C2=C(C=C(C=C21)C3=CN=C(C=C3)N4CCNCC4)C(=O)NCC5=C(C=C(NC5=O)C)C)C [GSK126] + CC(C)C[C@H](NC(=O)[C@H](Cc1ccccc1)NC(=O)c1cnccn1)B(O)O [Bortezomib] (partner 0.002 µM)
Procedure, shortened: as §1

MLN4924 + Lapatinib = compound: NS(=O)(=O)OC[C@@H]1C[C@@H](n2ccc3c(N[C@H]4CCc5ccccc54)ncnc32)C[C@@H]1O [MLN4924] + CS(=O)(=O)CCNCc1ccc(-c2ccc3ncnc(Nc4ccc(OCc5cccc(F)c5)c(Cl)c4)c3c2)o1 [Lapatinib] (partner 2 µM)
Procedure, shortened: as §1

Cell Line	relative viability (MLN4924 + Crizotinib; first compound 0.04 µM)	relative viability (MLN4924 + Crizotinib; first compound 0.1265 µM)	relative viability (MLN4924 + Crizotinib; first compound 0.4 µM)	relative viability (MLN4924 + Crizotinib; first compound 1.265 µM)	relative viability (MLN4924 + Crizotinib; first compound 4 µM)	relative viability (MLN4924 + Foretinib; first compound 0.04 µM)	relative viability (MLN4924 + Foretinib; first compound 0.1265 µM)	relative viability (MLN4924 + Foretinib; first compound 0.4 µM)	relative viability (MLN4924 + Foretinib; first compound 1.265 µM)	relative viability (MLN4924 + Foretinib; first compound 4 µM)	relative viability (GSK126 + Bortezomib; first compound 0.08 µM)	relative viability (GSK126 + Bortezomib; first compound 0.253 µM)	relative viability (GSK126 + Bortezomib; first compound 0.8 µM)	relative viability (GSK126 + Bortezomib; first compound 2.53 µM)	relative viability (GSK126 + Bortezomib; first compound 8 µM)	relative viability (MLN4924 + Lapatinib; first compound 0.04 µM)	relative viability (MLN4924 + Lapatinib; first compound 0.1265 µM)	relative viability (MLN4924 + Lapatinib; first compound 0.4 µM)	relative viability (MLN4924 + Lapatinib; first compound 1.265 µM)	relative viability (MLN4924 + Lapatinib; first compound 4 µM)
NCI-H1755	0.798	0.761	0.52	0.181	0.154	0.979	0.804	0.421	0.243	0.184	0.979	0.978	1.05	0.839	0.922	0.933	1.03	0.386	0.181	0.165
A-427	0.4	0.239	0.243	0.149	0.182	0.742	0.236	0.264	0.185	0.178	1.06	0.977	1.02	0.989	0.973	0.589	0.608	0.268	0.196	0.169
SW 1573	0.802	0.734	0.748	0.0862	0.0778	0.967	0.982	0.875	0.156	0.0921	1.06	1.1	0.989	1.01	1.26	0.781	1.1	0.565	0.13	0.114
PC-14	0.872	0.888	0.591	0.161	0.109	1.1	0.852	0.43	0.174	0.139	0.774	0.943	0.895	0.781	0.782	0.382	0.655	0.395	0.157	0.136
LOU-NH91	0.706	0.743	0.652	0.489	0.398	0.945	0.952	0.896	0.539	0.413	0.444	0.475	0.498	0.439	0.501	0.814	0.926	0.904	0.533	0.414
BEN	0.73	0.38	0.272	0.172	0.17	0.491	0.307	0.219	0.169	0.129	1.11	0.742	0.737	0.885	0.846	0.671	0.522	0.249	0.145	0.104
NCI-H2085	0.702	0.83	0.662	0.676	0.35	1.04	0.855	0.809	0.655	0.401	1.19	0.998	1.12	1.04	1.05	0.812	0.89	0.465	0.313	0.283
ABC-1	0.901	0.29	0.132	0.0913	0.223	1.07	1.07	0.301	0.189	0.248	0.319	0.35	0.336	0.309	0.268	1.11	1.45	1.71	0.773	0.552
NCI-H661	0.735	0.721	0.602	0.462	0.396	0.902	0.776	0.67	0.393	0.399	1	0.88	0.808	0.926	0.632	0.538	0.632	0.499	0.228	0.28
H3255	0.77	0.668	0.341	0.242	0.247	0.799	0.746	0.34	0.285	0.278	0.729	0.731	0.683	0.802	0.879	0.253	0.38	0.201	0.185	0.208
NCI-H1563	1.1	1.14	1.01	0.579	0.552	1.16	1.21	0.744	0.535	0.55	0.948	0.924	0.937	0.887	0.834	1.38	0.759	0.627	0.485	0.61
EMC-BAC-2	0.601	0.283	0.242	0.164	0.167	0.959	0.593	0.248	0.224	0.282	1.02	1.04	1.05	1.03	1.05	0.468	0.913	0.303	0.217	0.178
NCI-H1666	1.18	0.669	0.306	0.25	0.236	1.02	0.696	0.541	0.304	0.346	0.826	0.962	0.814	0.808	1.01	0.382	0.307	0.305	0.159	0.211
HCC-366	0.603	0.66	0.797	0.211	0.0183	0.907	0.975	0.925	0.447	0.0537	1.1	1.05	1.03	1.06	1.05	0.788	0.479	0.037	0.0233	0.0288
LCLC-97TM1	0.27	0.202	0.151	0.123	0.0984	0.97	0.424	0.69	0.127	0.123	0.563	0.586	0.671	0.719	0.575	0.853	0.798	0.189	0.11	0.137
NCI-H2405	0.797	0.667	0.478	0.266	0.242	1.08	0.928	0.76	0.319	0.293	0.988	0.974	0.985	0.982	0.975	1.26	1.05	0.511	0.192	0.195

Cell Line	relative viability (MLN4924 + Crizotinib; first compound 0.04 µM)	relative viability (MLN4924 + Crizotinib; first compound 0.1265 µM)	relative viability (MLN4924 + Crizotinib; first compound 0.4 µM)	relative viability (MLN4924 + Crizotinib; first compound 1.265 µM)	relative viability (MLN4924 + Crizotinib; first compound 4 µM)	relative viability (MLN4924 + Foretinib; first compound 0.04 µM)	relative viability (MLN4924 + Foretinib; first compound 0.1265 µM)	relative viability (MLN4924 + Foretinib; first compound 0.4 µM)	relative viability (MLN4924 + Foretinib; first compound 1.265 µM)	relative viability (MLN4924 + Foretinib; first compound 4 µM)	relative viability (GSK126 + Bortezomib; first compound 0.08 µM)	relative viability (GSK126 + Bortezomib; first compound 0.253 µM)	relative viability (GSK126 + Bortezomib; first compound 0.8 µM)	relative viability (GSK126 + Bortezomib; first compound 2.53 µM)	relative viability (GSK126 + Bortezomib; first compound 8 µM)	relative viability (MLN4924 + Lapatinib; first compound 0.04 µM)	relative viability (MLN4924 + Lapatinib; first compound 0.1265 µM)	relative viability (MLN4924 + Lapatinib; first compound 0.4 µM)	relative viability (MLN4924 + Lapatinib; first compound 1.265 µM)	relative viability (MLN4924 + Lapatinib; first compound 4 µM)
NCI-H1915	0.862	0.751	0.844	0.19	0.15	1.07	0.929	0.906	0.314	0.232	1.02	0.964	0.991	0.979	0.998	0.88	0.962	0.649	0.166	0.156
NCI-H650	0.676	0.402	0.289	0.135	0.179	0.863	0.499	0.341	0.197	0.191	0.812	0.814	0.762	0.804	0.727	0.492	0.543	0.26	0.166	0.169
NCI-H1650	1.04	0.658	0.333	0.202	0.166	0.92	0.951	0.325	0.217	0.19	0.233	0.25	0.185	0.183	0.19	0.385	0.261	0.182	0.149	0.185
NCI-H596	0.886	1.1	0.501	0.961	0.758	0.847	1.04	–	0.65	0.58	1.09	0.982	–	1.14	0.731	1.1	1.05	0.438	0.397	0.38
NCI-H2087	0.696	0.802	0.411	0.224	0.139	1.13	0.669	0.419	0.107	0.0968	1.02	0.668	0.94	0.941	0.907	0.843	0.597	0.233	0.142	0.132
RERF-LC-KJ	0.786	0.471	0.225	0.221	0.207	0.745	0.482	0.247	0.202	0.216	1.14	1.23	0.938	1.16	1.07	0.746	0.555	0.227	0.191	0.221
IA-LM	0.314	0.211	0.134	0.0572	0.0763	0.765	0.329	0.135	0.0463	0.0394	0.98	0.789	0.847	0.796	0.788	0.256	0.239	0.103	0.0582	0.0755
NCI-H2126	0.912	0.911	0.789	0.397	0.256	1.14	0.87	1.08	0.335	0.267	1.09	1.19	1.12	1.08	1.1	0.724	0.762	0.406	0.241	0.261
NCI-H2228	–	0.443	0.4	0.192	0.226	1.07	0.69	0.512	0.302	0.147	1.01	0.787	0.763	1.08	1.05	–	0.638	0.271	0.13	0.161
SK-LU-1	0.951	0.802	0.236	0.182	0.201	0.924	0.615	0.26	0.14	0.174	1.19	0.95	1.19	1.38	1.05	0.703	0.491	0.299	0.19	0.181
HARA	0.752	0.401	0.349	0.0875	0.0794	0.838	0.537	0.83	0.0708	0.0645	1.15	1.14	1.09	1.11	1.05	0.856	0.607	0.283	0.0754	0.0741
EPLC-272H	0.812	0.603	0.0795	0.136	0.201	0.582	0.216	0.0552	0.0953	0.109	1.1	0.889	0.99	0.822	0.963	0.848	0.805	0.106	0.119	0.165
COR-L 105	0.802	0.472	0.344	0.194	0.222	0.697	0.654	0.396	0.292	0.258	1.03	0.718	0.773	0.786	0.748	0.355	0.335	0.337	0.282	0.281
NCI-H727	0.672	0.274	0.266	0.274	0.222	0.863	0.737	0.515	0.285	0.335	1.02	0.78	0.899	0.854	0.88	0.692	0.704	0.352	0.24	0.192
EKVX	0.865	0.654	0.461	0.226	0.133	0.718	0.748	0.59	0.135	0.155	1	1.07	1.08	0.992	1.06	0.208	0.311	0.19	0.119	0.102
NCI-H1437	0.854	0.77	0.626	0.336	0.164	0.835	1.15	0.739	0.465	0.22	0.528	0.504	0.442	0.45	0.518	0.79	0.656	0.268	0.119	0.1
